For one assay, the target named is PqsR (Pseudomonas aeruginosa, UniProt Q9I4X0). The assay can be described thus: E. coli based β-galactosidase reporter gene assay (PqsR inverse agonistic activity). It counts as cell-based. More on the design: expressed in transfected cells; host or cells: Escherichia coli DH5α. As to the method: Inhibition of pqsR-dependent gene expression of test compounds was determined in an E. coli based β-galactosidase reporter gene assay.[19] Escherichia coli DH5α was transfected with pEAL08-2 plasmid encoding pqsR under control of promoter tac and β-galactosidase reporter gene lacZ under control of promoter pqsA. Antagonistic effects of compounds were evaluated in the presence of/in competition to 50 nM PQS. A positive control was used to ensure the reliability of individual assays. First, PQS was diluted in methanol and added to the wells of a glass coated 96-deep-well plate, and the solvent was evaporated. Then, compounds were added in 5 μL DMSO to final concentrations of 0.001-10 μM. Overnight cultures of E. coli DH5a×pEAL08-2 were diluted 1:100 in LB medium with ampicillin (50 μg/ml) and incubated at 37° C. with shaking until it reached an OD600 of 0.2. Finally, 995 μL of culture was added to each well and the p-galactosidase activity was determined by ortho-nitrophenyl-p-galactoside conversion in permeabilized cells after a 2.5 h incubation period (37° C., 180 rpm). OD600, OD420, and OD550 were measured using POLARstar Omega (BMG Labtech, Ortenberg, Germany), and the activity was expressed as ratio of the slope of β-galactosidase activity between basal control (no PQS) and solvent control. IC50 values of antagonists were determined by variation of the concentration of the test compounds.
Sequence of PqsR (Q9I4X0 whole entry): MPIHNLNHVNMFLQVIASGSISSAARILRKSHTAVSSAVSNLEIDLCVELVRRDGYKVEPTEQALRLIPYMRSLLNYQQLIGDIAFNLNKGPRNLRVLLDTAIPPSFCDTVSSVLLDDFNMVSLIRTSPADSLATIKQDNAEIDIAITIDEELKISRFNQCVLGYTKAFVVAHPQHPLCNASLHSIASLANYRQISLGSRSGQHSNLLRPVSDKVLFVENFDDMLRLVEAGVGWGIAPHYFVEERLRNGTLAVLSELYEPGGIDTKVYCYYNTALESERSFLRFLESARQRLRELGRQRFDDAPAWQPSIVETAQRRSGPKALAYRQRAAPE

Assay [1] has as its system P. aeruginosa pyocyanin production. Put plainly: Pyocyanin assay. It counts as cell-based, P. aeruginosa PA14. The note with it: Pseudomonas aeruginosa, PA14, 16 h, read-out: IC50-value towards pyocyanin production, PA14 in PPGAS medium, 16 h. How it is done: Inhibition of P. aeruginosa pyocyanin production by compounds was determined photometrically as described before.[20] In short, an overnight culture of PA14 in PPGAS medium was washed, diluted in medium to a start OD600 of 0.02, and incubated for 16 h (37° C., 200 rpm, relative humidity 75%) in the presence of test compounds. Then, cultures were extracted with chloroform and re-extracted with 0.2 M HCl. Protonated red colored pyocyanin was determined by measuring OD520 and normalizing to OD600.

In general, IC50 refers to the point on the concentration scale where inhibition reaches its midpoint. `COc1ccc(-n2cc(CNc3ccnc(C(F)(F)F)c3)nn2)cc1F` [Compound 026, N-((1-(3-Fluoro-4-methoxyphenyl)-1H-1,2,3-triazol-4-yl)methyl)-2-(trifluoromethyl)pyridin-4amine]: the IC50 at PqsR was at most 50 nM; in assay [1], 1000 to 5000 nM.
Regarding `CC(C)Oc1ccc(-n2cc(CNc3cc(Cl)nc(Cl)c3)nn2)cc1Cl` [Compound 158, 2,6-dichloro-N-((1-(3-chloro-4-isopropoxyphenyl)-1H-1,2,3-triazol-4-yl)methyl)pyridin-4-amine], the values for the IC50 (at PqsR; in assay [1]) were at most 50 nM and at most 250 nM, respectively.
`N#Cc1cc(NCc2cn(-c3ccc(Oc4ccccc4)cc3)nn2)cc(C#N)n1` [Compound 052, 4-(((1-(4-Phenoxyphenyl)-1H-1,2,3-triazol-4-yl)methyl)amino)pyridine-2,6-dicarbonitrile]: the IC50 is at most 50 nM on PqsR and at most 250 nM in assay [1].
With `Fc1cccc(Oc2ccc3[nH]c(CSc4ccnc(C(F)(F)F)c4)nc3c2)c1` [Compound 170, 5-(3-fluorophenoxy)-2-(((2-(trifluoromethyl)pyridin-4-yl)thio)methyl)-1H-benzo[d]imidazole], in assay [1], the IC50 is at most 250 nM.
With `FC(F)(F)c1cc(NCc2cn(-c3ccc(Cl)c(Cl)c3)nn2)ccn1` [Compound 005, N-((1-(3,4-Dichlorophenyl)-1H-1,2,3-triazol-4-yl)methyl)-2-(trifluoromethyl)pyridin-4-amine], the results for the IC50 (on PqsR; in assay [1]) were at most 50 nM and 251 to 1000 nM, respectively.
In the case of `Fc1ncccc1Oc1ccc(-n2cc(CNc3cc(Cl)nc(C(F)(F)F)c3)nn2)cc1` [Compound 142, 2-chloro-N-((1-(4-((2-fluoropyridin-3-yl)oxy)phenyl)-1H-1,2,3-triazol-4-yl)methyl)-6-(trifluoromethyl)pyridin-4-amine], the 50% inhibitory concentration (IC50) on PqsR was at most 50 nM; in assay [1], at most 250 nM.
Take `FC(F)(F)c1cc(NCc2cn(-c3ccc(-n4ncc5ccncc54)cc3)nn2)cc(Cl)n1` [Compound 151, N-((1-(4-(1H-pyrazolo[3,4-c]pyridin-1-yl)phenyl)-1H-1,2,3-triazol-4-yl)methyl)-2-chloro-6-(trifluoromethyl)pyridin-4-amine]: the half-inhibitory concentration (IC50) in assay [1] fell in the range of 251 to 1000 nM.
Take `FC(F)(F)c1cc(NCc2cn(-c3ccc(Nc4ccccc4)cc3)nn2)ccn1` [Compound 018, N-((1-(4-(Phenylamino)phenyl)-1H-1,2,3-triazol-4-yl)methyl)-2-(trifluoromethyl)pyridin-4-amine]: the half-inhibitory concentration (IC50) on PqsR is at most 50 nM; in assay [1] it was 251 to 1000 nM.
As for `CC(C)Oc1ccc(-c2ncc(CNc3cc(Cl)nc(C(F)(F)F)c3)s2)cc1Cl` [Compound 094, 2-Chloro-N-((2-(3-chloro-4-isopropoxyphenyl)thiazol-5-yl)methyl)-6-(trifluoromethyl)pyridin-4-amine], the IC50 is at most 50 nM at PqsR and at most 250 nM in assay [1].
Take `O=[N+]([O-])c1cc(-c2ncc(CNc3cc(Cl)nc(C(F)(F)F)c3)cn2)ccc1Cl` [Compound 169, 2-chloro-N-((2-(4-chloro-3-nitrophenyl)pyrimidin-5-yl)methyl)-6-(trifluoromethyl)pyridin-4-amine]: in assay [1], the IC50 is at most 250 nM.
Regarding `FC(F)(F)c1cc(NCc2cn(-c3ccc(-n4ncc5ccccc54)cc3)nn2)cc(Cl)n1` [Compound 150, N-((1-(4-(1H-indazol-1-yl)phenyl)-1H-1,2,3-triazol-4-yl)methyl)-2-chloro-6-(trifluoromethyl)pyridin-4-amine], the IC50 in assay [1] fell in the range of 251 to 1000 nM.
Turning to `CC(C)Oc1ccc(-c2ncc(CNc3cc(Cl)nc(C(F)(F)F)c3)cn2)cc1` [Compound 168, 2-chloro-N-((2-(4-isopropoxyphenyl)pyrimidin-5-yl)methyl)-6-(trifluoromethyl)pyridin-4-amine], in assay [1], the IC50 was at most 250 nM.
Consider `CC(C)Oc1ccc(-c2ncc(CNc3cc(C#N)nc(C(F)(F)F)c3)s2)cc1` [Compound 163, 4-(((2-(4-Isopropoxyphenyl)thiazol-5-yl)methyl)amino)-6-(trifluoromethyl)picolinonitrile], for which the IC50 in assay [1] was at most 250 nM.
Consider `Fc1ccccc1Oc1ccc(-c2ncc(CNc3cc(Cl)nc(C(F)(F)F)c3)cn2)cc1` [Compound 167, 2-chloro-N-((2-(4-(2-fluorophenoxy)phenyl)pyrimidin-5-yl)methyl)-6-(trifluoromethyl)pyridin-4-amine], for which, in assay [1], the IC50 was at most 250 nM.
Consider `CC(C)Oc1ccc(-n2cc(CNc3cc(Cl)nc(C(F)(F)F)c3)nn2)cc1` [Compound 140, 2-chloro-N-((1-(4-isopropoxyphenyl)-1H-1,2,3-triazol-4-yl)methyl)-6-(trifluoromethyl)pyridin-4-amine], for which the IC50 in assay [1] is at most 250 nM.
In turn, `COc1cc(SCc2nc3cc(Oc4ccccc4)ccc3[nH]2)nc(C(F)(F)F)n1` [Compound 126, 2-(((6-Methoxy-2-(trifluoromethyl)pyrimidin-4-yl)thio)methyl)-5-phenoxy-1H-benzo[d]imidazole] registered an IC50 on PqsR of 251 to 1000 nM.
Still for that read-out and setting: with `CSc1cccc(-n2cc(CNc3ccnc(C(F)(F)F)c3)nn2)c1` [Compound 015, N-((1-(3-(Methylthio)phenyl)-1H-1,2,3-triazol-4-yl)methyl)-2-(trifluoromethyl)pyridin-4-amine] the figure was 51 to 250 nM.
As to `Fc1cccc2c1cnn2-c1ccc(-n2cc(CNc3cc(Cl)nc(C(F)(F)F)c3)nn2)cc1` [Compound 146, 2-chloro-N-((1-(4-(4-fluoro-1H-indazol-1-yl)phenyl)-1H-1,2,3-triazol-4-yl)methyl)-6-(trifluoromethyl)pyridin-4-amine], the 50% inhibitory concentration (IC50) in assay [1] lay in the range of 251 to 1000 nM.
As for `FC(F)(F)c1cc(NCc2csc(-c3cccc(Oc4ccccc4)c3)n2)ccn1` [Compound 089, N-((2-(3-Phenoxyphenyl)thiazol-4-yl)methyl)-2-(trifluoromethyl)pyridin-4-amine], the IC50 on PqsR fell in the range of 51 to 250 nM.
Regarding `Nc1cc(SCc2nc3cc(Oc4cccc(F)c4)ccc3[nH]2)nc(C(F)(F)F)n1` [Compound 171, 6-(((5-(3-fluorophenoxy)-1H-benzo[d]imidazol-2-yl)methyl)thio)-2-(trifluoromethyl)pyrimidin-4-amine], the IC50 in assay [1] was at most 250 nM.
In the case of `FC(F)(F)c1cc(SCc2cn(-c3ccc(Cl)c(Cl)c3)nn2)ccn1` [Compound 059, 4-(((1-(3,4-Dichlorophenyl)-1H-1,2,3-triazol-4-yl)methyl)thio)-2-(trifluoromethyl)pyridine], the IC50 at PqsR fell in the range of 51 to 250 nM.
The compound `CN(c1ccccc1)c1ccc(-n2cc(CNc3ccnc(C(F)(F)F)c3)nn2)cc1` [Compound 029, N-((1-(4-(Methyl(phenyl)amino)phenyl)-1H-1,2,3-triazol-4-yl)methyl)-2-(trifluoromethyl)pyridin-4-amine] returned an IC50 on PqsR of 51 to 250 nM.
Turning to `Fc1cccc(-n2cc(CNc3ccnc(C(F)(F)F)c3)nn2)c1` [Compound 009, N-((1-(3-Fluorophenyl)-1H-1,2,3-triazol-4-yl)methyl)-2-(trifluoromethyl)pyridin-4-amine], at PqsR, the IC50 lay within 251 to 1000 nM.
Regarding `FC(F)(F)c1nccc(SCc2cn(-c3ccc(Cl)cc3)nn2)n1` [Compound 060, 4-(((1-(4-chlorophenyl)-1H-1,2,3-triazol-4-yl)methyl)thio)-2-(trifluoromethyl)pyrimidine], the IC50 on PqsR is 251 to 1000 nM.
Same read-out and setting: next, `FC(F)(F)c1cc(NCc2cn(-c3ccc(Oc4ccccn4)c(Cl)c3)nn2)ccn1` [Compound 034, N-((1-(3-Chloro-4-(pyridin-2-yloxy)phenyl)-1H-1,2,3-triazol-4-yl)methyl)-2-(trifluoromethyl)pyridin-4-amine]: at most 50 nM.

These data come from patent US11883387B2, “PqsR inverse agonists” (HELMHOLTZ-ZENTRUM FÜR INFEKTIONSFORSCHUNG GMBH, priority 2018, dated 2024).
